Results published in patent publication US6379670B1, “Methods for treatment of multiple sclerosis using peptide analogs of human myelin basic protein” (Neurocrine Biosciences, Inc., priority 1994, dated 2002).

Tested on: Lewis rats
Assay: Induction of EAE by peptide analog
Assay type: in vivo, rat
Description: In addition, as a safety measure, but not essential to this invention, suitable peptide analogs may be tested for direct induction of EAE. As described in detail in Example 2, various amounts of peptide analogs are injected at the base of the tail of rats, and the rats examined daily for signs of EAE. A peptide analog which is not considered to cause EAE has a mean cumulative score of less than or equal to 1 over seven days when about 12 mg/kg or less in complete Freund's adjuvant is injected.
MBP peptide and peptide analogs were dissolved in phosphate-buffered saline (PBS) and emulsified with an equal volume of incomplete Freund's adjuvant supplemented with 4 mg/ml heat-killed Mycobacterium tuberculosis H37Ra in oil (Difco Laboratories, Inc., Detroit, Mich.). Rats were immunized subcutaneously at the base of the tail with 0.1-0.2 ml containing 500 μg of peptide in the emulsion and were monitored for clinical signs daily. EAE was scored on a scale of 0-4, as follows: 0, clinically normal; 1, flaccid tail; 2, hind limb weakness; 3, hind limb paralysis; 4, front and hind limbs affected.
The ability of peptide analogs to cause EAE is assessed in vivo. Rats were injected with MBP (87-99) or h88/A91 peptide analog as described in Example 2. Animals were monitored daily for evidence of EAE. Rats receiving MBP (87-99) had 100% incidence (18/18 rats) of EAE with a mean maximum clinical score of 2.4±0.2. In contrast, 0/12 rats receiving the peptide analog h88/A91 had EAE.

[1] = rats injected with 500 μg peptide in adjuvant

Row | SMILES | incidence of EAE [1] [%] | rats with EAE / rats injected [1] | mean maximum clinical score (scale 0-4) | induction of EAE by the peptide (rat, in vivo)
1 | CC[C@H](C)[C@H](NC(=O)[C@H](CC(N)=O)NC(=O)[C@H](CCCCN)NC(=O)[C@H](Cc1ccccc1)NC(=O)[C@H](Cc1ccccc1)NC(=O)[C@H](Cc1c[nH]cn1)NC(=O)[C@@H](N)C(C)C)C(=O)N[C@H](C(=O)N[C@H](C(=O)N1CCC[C@H]1C(=O)N[C@@H](CCCNC(=N)N)C(=O)N[C@H](C(=O)N1CCC[C@H]1C(=O)O)[C@@H](C)O)[C@@H](C)O)C(C)C [MBP (87-99)] | 100 | 18/18 | 2.4±0.2 | 
2 | CC[C@H](C)[C@H](NC(=O)[C@H](CC(N)=O)NC(=O)[C@H](C)NC(=O)[C@H](Cc1ccccc1)NC(=O)[C@H](Cc1ccccc1)NC(=O)[C@@H](Cc1c[nH]cn1)NC(=O)[C@@H](N)C(C)C)C(=O)N[C@H](C(=O)N[C@H](C(=O)N1CCC[C@H]1C(=O)N[C@@H](CCCNC(=N)N)C(=O)N[C@H](C(=O)N1CCC[C@H]1C(=O)O)[C@@H](C)O)[C@@H](C)O)C(C)C [h88/A91] |  | 0/12 |  | does not induce EAE
